Assay results taken from patent US7833998B2, “Oral neurotherapeutic cephalosporin sulfoxide and sulfone-containing compositions” (Revaax Pharmaceuticals, LLC, priority 2003, dated 2010).

Assays:
[1] = system: golden hamsters; details: King et al. 2001; effective anxiolytics at doses of 1 μg/kg and above; cited from earlier work
[2] = system: extracellular neurotransmitter levels in the area of the nucleus accumbens; experiment: microdialysis of nucleus accumbens, electrochemical detection of metabolites; format: in vivo, Sprague Dawley rats; details: rats, intra-peritoneal 10 ng to 100 μg/kg, dialysate 15-75 minutes post-treatment
Procedure: To test this hypothesis, extracellular neurotransmitter levels in the area of the nucleus accumbens were assessed with microdialysis following Δ^3-cefazolin sulfoxide treatment. The accumbens is part of the limbic forebrain best know for its association with the pathophysiology of schizophrenia, conditioned reinforcement and drug addiction but also thought to be involved in sensitization to early life trauma leading to the anxiety disorder PTSD or post traumatic stress disorder (Charney and Bremner (1999) The neurobiology of anxiety disorder. In: NEUROBIOLOGY OF MENTAL ILLNESS (Cahrney, D S, et al eds.), Oxford University Press, New York, pgs 494-517).
Method. Twenty-four male Sprague Dawley rats were anesthetized with sodium pentobarbital (50 mg/kg) and implanted with a unilateral microdialysis guide cannula aimed at the nucleus accumbens. Animals were divided into six groups of four animals each and treated with a range of cefazolin doses (saline vehicle, 10 ng, 100 ng, 1 μg, 10 μg, 100 μg/kg) (FIGS. 6a-c). Two days after recovery from surgery a microdialysis probe (2 mm) was lowered to the area and connected to an infusion pump through Tygon tubing. The dialysate was artificial CSF at pH 7.4 delivered at a flow rate of 1.8 μl/min. The first 30 minutes of dialysate was discarded. Thereafter, samples were collected at 15 minute intervals 45 minutes prior to and 75 minutes following intra-peritoneal administration of Δ^3-cefazolin sulfoxide. Samples were collected into microfuge tubes containing 5 μl of 0.16 N perchloric acid to stabilize catecholamines. At the end of the study, animals were sacrificed and the brains prepared for histology to verify the site of the microdialysis probe.
The levels of dopamine metabolites DOPAC (FIG. 6a) and HVA (FIG. 6b) and serotonin metabolite HIAA (FIG. 6c) were assessed by electrochemical detection. […] Measures from each of the four remaining samples collected between 15-75 minutes post-treatment were analyzed. […] Mean values were analyzed with a one-way ANOVA followed by Bonferroni's post hoc test.

[3] = system: BALBc mice; experiment: radial arm maze, learning and memory; format: in vivo, mouse; details: intra-peritoneal 2.5 ng, 250 ng, 25 μg/kg
Source text: The radial arm maze is one of the most commonly used methods for testing spatial learning and memory in rodents. Developed by Olton and co-workers (Olton, D. S., Samuelson, R. J. (1976) J. Experimental Psychology, 2: 97-115), the maze provides the simultaneous choice of several alternative paths for the test subject. Animals must learn which locations provide food (place learning) using visuospatial cues. Animal care. Male BALBc mice weighing 21-23 gm were housed individually in a normal 12:12 light-dark cycle (light on at 0600 hr) and provide food and water ad libitum. The method described below was reported by Crusio et al., (1987) Brain Research, 425: 182-185. The radial arm maze consisted of a central platform and eight arms made of transparent Plexiglas. The central part measured 22 cm in diameter. The closed arms were 25 cm long, 6 cm high and 6 cm wide. Several fresh food pellets were deposited beyond the end of each arm behind a perforated wall. This arrangement served to prevent the animals from selecting a baited arm by smelling the presence or absence of a reward. […] Entry to an arm was counted when the mouse reached the perforated wall. […] The number of errors was recorded for each day of training. […] Dose response effects were assessed by means of a repeated measured two-way ANOVA followed by Bonferroni's post hoc test.

[4] = system: Wistar rats; details: rat, literature validation of the method; cited from earlier work
[5] = system: Syrian golden hamsters (Mesocricetus auratus); experiment: resident/intruder model of offensive aggression (serenic activity); format: in vivo
Source text: Agonistic behavior can be classified as either offensive or defensive aggression (Blanchard, R. J., Blanchard, D. C. (1977) Physiology and Behavior, 1, 197-224; Adams, D. B. (1979) The Behavioral Brain Sciences, 2, 201-241; Albert, D. J. and Walsh, M. L. (1984) Neuroscience and Behavioral Reviews, 8, 5-24). Offensive aggression is characterized by the aggressor initiating an attack on an opponent, while defensive aggression lacks active approach. Both types of aggression have their own unique neurobehavioral systems. The stimuli that elicit offensive and defense attacks are different, as are the sequences of behaviors that accompany each agonistic response. […] Offensive aggression is easily studied using male golden hamsters tested in a resident/intruder paradigm, an established model of offensive aggression ([…]. (1988) Physiology and Behavior, 44, 235-239). Placing an unfamiliar male hamster into the home cage of another male hamster elicits a well-defined sequence of agonistic behaviors from the resident that includes offensive aggression. Animal Care. Male Syrian golden hamsters (Mesocricetus auratus) (140-150 g) obtained from Harlan Sprague-Dawley Laboratories (Indianapolis, Ind.) were housed individually in Plexiglas cages (24 cm×24 cm×20 cm), maintained on a reverse light:dark cycle ([…]:10D; lights on at 19:00 hr) and provided food and water ad libitum. Animals were acclimated to the reverse light:dark cycle for at least two weeks before testing. All behavioral tests were conducted during the dark phase of the circadian cycle. Behavioral Measures and Analysis. Hamsters are nocturnal and as such behavioral tests were performed during the first four hours of the dark phase under dim red illumination. The resident was scored for offensive aggression, e.g., latency to bite the intruder, total contact time with the intruder, the total number of bites, and flank marking, over a 10 minute test period ([…]. (1988) Physiology and Behavior, 44, 235-239). Flank marking is a form of olfactory communication in which a hamster arches its back and rubs pheromone producing flank glands against objects in the environment (Johnston, R. E. (1985) Communication, In: THE HAMSTER REPRODUCTION AND BEHAVIOR. Ed Siegel, H. I. Plenum Press, New York, pp 121-154). […] Parametric data, i.e., latencies and contact time, were analyzed with a one-way ANOVA followed by Newman-Keuls post hoc tests. Non-parametric data, i.e., number of bites and flank marks, were analyzed with Kruskal-Wallis tests followed by Mann-Whitney U tests to determine differences between groups. Method. […] Ninety min after oral gavage an intruder was placed into the home cage and the resident scored for offensive aggression. Following aggression testing, animals were screened for motor activity in an open field paradigm and sexual motivation (FIGS. 4a-b).

[6] = system: Wistar rats; experiment: elevated plus-maze; format: in vivo, rat
Source text: The elevated plus-maze was developed for the assessment of anxiolytic and anxiogenic drug effects in the rat (Pellow et al., (1985) Journal of Neuroscience Methods 14: 149-167). The method has been validated behaviorally, physiologically, and pharmacologically. The plus-maze has two open arms and two enclosed arms. […] Conversely, anxiogenic compounds such as yohimbin or amphetamines reduce open arm entries and time spent in the open arms.
Method. Male Wistar rats weighing 250-300 g were group housed in a normal 12:12 light-dark cycle light on at 0800 hour and provided food and water ad libitum. The plus-maze consisted of two open arms, 50×10 cm, and two enclosed arms 50×10×40 cm with an open roof, arranged such that the two open arms were opposite to each other. The maze was elevated to a height of 50 cm. Four groups of five animals each were tested in the plus-maze 90 minutes following oral gavage of either vehicle, or 100 ng/kg, 10 μg/kg, or 1 mg/kg of delta-2-cefazolin-1-sulfoxide (Δ^2-cefazolin sulfoxide). At the start of the experiment the animal was place in the center of the plus maze facing the closed arm. Over a 3 minute observation period, animals were scored for the latency to enter the closed arm, time spent in the closed arm, and the number of open arm entries following the first occupation of the closed arm.

[7] = system: Syrian golden hamsters (Mesocricetus auratus); details: in vivo, po
Source text: Method. […] Ninety min after oral gavage an intruder was placed into the home cage and the resident scored for offensive aggression. Following aggression testing, animals were screened for motor activity in an open field paradigm and sexual motivation (FIGS. 4a-b).

CNCCCN1c2ccccc2CCc2ccccc21 [desipramine]
effect on seed finding [1]: ineffective

CNCCC(Oc1ccc(C(F)(F)F)cc1)c1ccccc1 (centres unmarked) [fluoxetine]
effect on seed finding [1]: dramatically reduce

Cc1nnc(SCC2=C(C(=O)O)N3C(=O)[C@@H](NC(=O)Cn4cnnn4)[C@H]3[S+]([O-])C2)s1 (some centres unmarked) [Δ^3-cefazolin sulfoxide, cefazolin-1-sulfoxide]
DOPAC levels (dopamine metabolite) ([2]; pg/15 μl (FIG. 6a)): significant (*p<0.05; **p<0.01) dose-dependent increase | HVA levels (dopamine metabolite) ([2]; pg/15 μl (FIG. 6b)): significant (*p<0.05; **p<0.01) dose-dependent increase | HIAA levels (serotonin metabolite) ([2]; pg/15 μl (FIG. 6c)): significant (*p<0.05; **p<0.01) dose-dependent increase | number of errors ([3]; day five, vs vehicle): no significant difference | number of errors ([3]; testing days three and four, vs vehicle control (*p<0.05, **p<0.01) (FIG. 5)): significantly reduced

O=C1CC2(CCCC2)CC(=O)N1CCCCN1CCN(c2ncccn2)CC1 [buspirone]
effect on seed finding [1]: dramatically reduce

COC(=O)[C@@H]1[C@H]2C[C@H]3c4[nH]c5ccccc5c4CCN3C[C@@H]2CC[C@@H]1O [yohimbine]
effect on seed finding [1]: ineffective | number of entries into the open arms [4]: reduce | percentage of time spent in the open arms [4]: reduce

delta-2-cefazolin-1-sulfoxide
serenic activity, inhibiting offensive aggression ([5]; oral gavage): very effective serenic | flank marking ([5]; oral gavage 100 ng/kg, 10 μg/kg, 1 mg/kg, 90 min, 10 minute test (FIG. 3d)): significantly increased | latency to bite ([5]; oral gavage 100 ng/kg, 10 μg/kg, 1 mg/kg, 90 min, 10 minute test, p<0.01 (FIG. 3a)): significantly increased | number of bites ([5]; oral gavage 100 ng/kg, 10 μg/kg, 1 mg/kg, 90 min, 10 minute test, p<0.01 (FIG. 3c)): decreased | contact time ([5]; oral gavage, 90 min, 10 minute test, highest dose (1 mg/kg) (FIG. 3b)): significantly reduced at the highest dose | anxiolytic activity in the elevated plus-maze ([6]; given orally to rats): dose-dependent anxiolytic activity | latency to enter the closed arm ([6]; rats, oral gavage 100 ng/kg, 10 μg/kg, 1 mg/kg, 90 min, 3 minute observation, vs vehicle (FIG. 2a)): increased | time spent in the open arm ([6]; rats, oral gavage 100 ng/kg, 10 μg/kg, 1 mg/kg, 90 min, vs vehicle (FIG. 2b)): significantly increased (p<0.01) | motor activity (open field) [7]: no change | sexual motivation [7]: no change

CN1C(=O)CN=C(c2ccccc2)c2cc(Cl)ccc21 [diazepam]
number of entries into the open arms [4]: significantly increase | percentage of time spent in the open arms [4]: significantly increase
